Reference: patent US8846351B2, “Compositions for enhancing hydroysis of cellulosic material by cellulolytic enzyme compositions” (Novozymes, Inc., priority 2010, dated 2014)
Like-named read-outs stand apart in the source and are kept apart here.

Assays:
[1] = test system: Trichoderma reesei cellulase composition; assay type: biochemical; settings: AVICEL, 1 mM organic compound
Description: Microcrystalline cellulose was used as the source of cellulosic material.
The concentration of each organic compound was 1 mM.

[2] = target: T. aurantiacus GH61A polypeptide (Thermoascus aurantiacus, UniProt G3XAP7, N13Y); test: PACE analysis of products from PASC incubated with organic compound, Ca(II) and T. aurantiacus GH61A polypeptide at various pH; assay type: biochemical
Chain of T. aurantiacus GH61A polypeptide (G3XAP7 whole entry N13Y): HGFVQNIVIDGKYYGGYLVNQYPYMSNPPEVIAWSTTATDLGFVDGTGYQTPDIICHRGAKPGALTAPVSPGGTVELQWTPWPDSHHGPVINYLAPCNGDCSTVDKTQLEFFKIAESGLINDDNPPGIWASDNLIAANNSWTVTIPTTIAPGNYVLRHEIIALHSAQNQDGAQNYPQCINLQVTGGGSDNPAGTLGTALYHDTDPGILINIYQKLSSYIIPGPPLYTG
Description: Polysaccharide-analysis-using-carbohydrate-gel-electrophoresis (PACE) was applied to analyze the products from incubation of cellulose in the presence of Ca(II) and ascorbate, cysteine or gallic acid and the T. aurantiacus GH61A polypeptide.
The mixture was filtered, and the filtrate (90 μl) was subjected to PACE analysis as described below. Buffers were varied to obtain the following pH values: formic acid at pH 4, acetic acid at pH 5, triethylammonium acetate at pH 6-7, and ammonium acetate at pH 8-9.
Carbohydrate products from the reaction were derivatized with 8-aminonaphthalene-1,3,6-trisulfonic acid (ANTS) fluorophore, applied to a polyacrylamide gel, and subjected to PACE, according to protocols adapted from (Goubet et al, 2002, Analytical Biochemistry 300: 53-68). Briefly, the derivatization was conducted by first drying 45 μl of the reaction products in a Jouan RC1010 vacuum concentrator system (Jouan Inc., Vallensbaekvej, Denmark) at 40° C. for about 3 hours, then mixing the dried products with 5 μl of 0.2 M ANTS in 15% acetic acid and 5 μl of 1 M NaBH3CN in DMSO, incubation at 37° C. in a thermomixer overnight followed by exposure to air for about 30 minutes, and then drying in a vacuum concentrator at 40° C. for about 4 hours. The ANTS-labeled samples were mixed with 20 μl of 6 M urea prior to PACE analysis.
Gels were cast according to Goubet et al., 2002, supra. The electrophoresis was performed with an SE 660 vertical electrophoresis system (GE Healthcare, Park Alle, Denmark) in a Tris/Borate buffer system at 200 V for 30 minutes and then at 1000 V for almost 2 hours at +5° C., followed by visualization using a UVP BioImaging System (UVP, LLC, Upland, Calif., USA) with UV transilluminator (Wavelength 365 nm UV-A) and EpiChem Darkroom combined with a camera system using a SYBR Gold™ emission filter (Syngene, Cambridge, United Kingdom).
Densitometry was performed by visual definition of a minimal space containing the band of interest, and integration of total pixel intensity within the space using a series of MatLab® scripts (The Mathworks, Natick, Mass., USA).

[3] = cited from earlier work

Row | SMILES | organic compound effect(no GH61) ([1]; pH 5.0, 50° C., 7 days) | organic compound effect(no GH61) ([1]; pH 5.0, 50° C., 3 days) | other results
1 | O=C(O)c1ccc(O)c(O)c1 [3,4-dihydroxybenzoic acid] | 0.977±0.0208 |  | 
2 | O=C(O)c1cc(O)cc(O)c1 [3,5-dihydroxybenzoic acid] | greater than 1 |  | 
3 | COc1cc(C=CC(=O)O)ccc1O [4-hydroxy-3-methoxycinnamic acid] | approximately 1 | below 1 | 
4 | O=C(O)c1ccc(O)cc1 [4-hydroxybenzoic acid] | 0.961±0.0250 | 0.959±0.0162 | 
5 | N[C@@H](CS)C(=O)O [cysteine] |  |  | products detected on PACE ([2]; PASC, Ca(II), GH61A polypeptide, 50° C., pH at or above the pKa of the compound): products similar to cellodextrins having 1-7 glucosyl units were detected
6 | O=C1OC(C(O)CO)C(=O)C1=O (stereo not shown) [dehydroascorbate] | 1.14±0.00522 | 1.05±0.0058 | 
7 | O=C(O)c1cc(O)c(O)c(O)c1 [gallic acid] |  |  | PACE band intensity as a function of pH (densitometry) ([2]; cellodextrin bands of apparent DP 4, 8 and 9): increased in intensity with increasing pH; PACE product bands at low pH ([2]; lowest pH examined, 3.9): near zero; shape of the increase of PACE band intensity with pH ([2]; pH range about 3.9 to 5.6): sharp increase in product intensity was noted between pH values of 4.5 and 5.5; pKa [3]: 4.5
8 | N[C@@H](CCC(=O)O)C(=O)O [glutamic acid] | above 1 | below 1 | 
9 | COC(=O)c1cc(O)c(O)c(O)c1 [methyl-3,4,5-trihydroxybenzoate] | 0.947±0.00189 | 0.989±0.0121 | 
10 | COC(=O)c1ccc(O)cc1 [methyl-4-hydroxybenzoate] |  |  | organic compound effect(no GH61) ([1]; time not specified (FIG. 1: 3 and 7 days)): slightly inhibited
11 | Oc1ccccc1O [pyrocatechol] | 0.766±0.0361 |  | 
12 | Oc1cccc(O)c1O [pyrogallol] | 0.735±0.00518 |  | 
13 | O=C(O)C(O)C(O)C(=O)O (stereo not shown) [tartrate] | below 1 | below 1 | 
